Experimental findings from PMC9576799, “Discovery of small molecule inhibitors that effectively disrupt IQGAP1-Cdc42 interaction in breast cancer cells” (Scientific Reports, 2022) are described below.

The target of one data set is T1, His-tagged GST (Schistosoma japonicum, UniProt P08515).
T1 construct: purchased Millipore #12-523
Nature of the data set: HTRF counter-screen with His-GST. The settings on record: 100 nM His-GST. How it is done:
Two different HTRF counter-screens were used to identify false positive hits. The two interacting proteins GST-IQGAP1-C and His-Cdc42-Q61L were replaced with His-tagged GST or Cdc42-Q61L containing GST at the N-terminus and His at the C-terminus (GST-Cdc42-Q61L-His).
The second counter-screen was performed with 100 nM His-tagged GST following the protocol described above.
Supplementary Table S2: Counter-screening HTRF protocol.
Step Parameter Value Description
1a Protein 4 µL 100 nM His-GST (final concentration), diluted in
1b Controls 4 µL Column 2: GST-IQGAP1-C protein only [1.5nM] final
Column 3: pre-mixed proteins (regular assay
2 Compounds 23 nL Selected compounds were pin-transferred from DMSO
HTRF α-His-XL (5 ng/µL, 3X working concentration) +
3 antibodies 2 µL α-GST-K (0.7 ng/µL 3X working concentration),
pre-mix mixed in binding buffer
4 Time 3 Incubation (ambient temperature)
5 Reagent 1 µL 2.8 M KF (7x)
6 Detector HTRF Envision plate reader (excitation: 340 nm, emission: […]

In a further data set the test system is control MCF7 cells. Nature of the data set: CellTiter-Glo cell viability assay, control MCF7. It counts as cell-based, human. The following applies: 72 h. How it is done: Selected hit compounds were tested in CellTiterGlo cell viability assays to determine their cytotoxic effect on IQGAP1 knockout and control MCF7 cells. Prior to the assay, we assessed cell proliferation to keep both cell lines at similar exponential growth rates within 80 h after plating. For this purpose, the cells were plated onto 384-well clear bottom black plates (Perkin Elmer, Ultra) at various cell densities (between 625 and 10,000 cells/50µL/well), spun down for 15 s, and placed into Incucyte SX5 (Essen BioScience) for automated bright-field channel reading every 4 h. […] For the cytotoxicity assays, cells were harvested with 0.05% trypsin, spun down at 125xg for 5 min, re-suspended in fresh DMEM supplemented with 5% (v/v) FBS, and seeded into 1536-well white solid bottom tissue culture-treated plates (Greiner One, #789173-F) at 600 cells/5µL/well for knockout cells and 300 cells/5µL/well for control cells using a Multidrop Combi dispenser (Thermo Fisher Scientific Inc.). One column on each plate was dispensed with growth medium only (no cells) to gauge the maximal potential cytotoxic effect (IC100 control). The plates were kept in a tissue culture incubator at 37 °C with 5% CO2 for ~ 20 h for attachment and recovery of the cells. The next day, selected compounds were pin-transferred into the wells in columns 5–48, 23nL/well at 7-point 1:3 serial dilution, in the range of 46 µM to 78 nM final assay concentration. DMSO was used as the vehicle control (IC0). The plates were covered with stainless steel cell culture Kalypsys lids and incubated at 37 °C with 5% CO2 under 95% humidity for 72 h.
Plates and reagents were equilibrated to room temperature and then 5 µL/well of CellTiter Glo (Promega, #G7570) reagent was dispensed with a Multidrop Combi dispenser to the assay plates. After incubation for 10 min at ambient temperature, the luminescence signal was read with a ViewLux instrument (Perkin Elmer) with one second exposure. Relative luminescent units (RLU) for each well were normalized to the median RLUs from DMSO control wells as […] and “no cells” control wells as 100% viability.
Background: In ATP-based viability assays light output follows the ATP content of the culture.

The nature of data set [1]: Metabolic half-life in rat liver microsome lysates. It counts as in vitro ADME. The following applies: minimum detectable half-life of 1 min; for half-life: read-out: T1/2 metabolic half-life. In general terms: Liver microsomes are a subcellular fraction often used to study metabolism.
The nature of data set [2]: Parallel artificial membrane permeation assay (PAMPA). It counts as in vitro ADME. The settings on record: for Papp: PAMPA, read-out: PAMPA passive permeability. Background: PAMPA measures passive passage across an artificial lipid membrane.
Data set [3] in a line: pION µSOL kinetic aqueous solubility. It counts as physicochemical. The following applies: pION µSOL assay, pH 7.4; for solubility kinetic: aqueous medium.
The target in data set [4] is T2, endogenous IQGAP1/Cdc42 interaction (Homo sapiens, UniProt P46940+P60953).
T2 construct: endogenous in cells; host or cells: HEK293 cell lysate
Nature of the data set: Immunoprecipitation of endogenous IQGAP1 and co-precipitated Cdc42 in HEK293 cell lysates. It counts as binding. The settings on record: DMSO = 100% binding. How it is done:
Each compound was added to lysates from HEK293 cells at a final concentration of 50 µM and endogenous IQGAP1 was immunoprecipitated. DMSO alone was used as the negative control (100% binding).
HEK293 cells were plated in 10-cm dishes to reach 80% confluence. The following day, the cells were washed with ice-cold phosphate-buffered saline (PBS) and lysed with 500 µl of Buffer A (50 mM Tris–HCl, pH 7.4, 150 mM NaCl, and 1% Triton X-100) supplemented with complete protease and phosphatase inhibitors (Roche, Mannheim, Germany). Lysates were subjected to two rounds of sonication for 10 s each, and insoluble material was precipitated by centrifugation at 13,000 xg for 10 min at 4 °C. Supernatants were precleared with protein A-Sepharose beads for 1 h. DMSO (vehicle) or different concentrations of the compounds (0.2, 0.6, 1, 5, 16 or 50 µM) were added to equal amounts of protein lysates for 30 min. Protein A-Sepharose beads and anti-IQGAP1 polyclonal antibodies were then added for 2 h at 4 °C. Anti-rabbit IgG antibodies were used as the immunoprecipitation control. Samples were washed five times with Buffer A, resolved by SDS-PAGE and transferred to polyvinylidene fluoride (PVDF) membranes (Millipore Corp). Membranes were probed with anti-IQGAP1 and anti-Cdc42 antibodies. After secondary antibody detection, Western blots were imaged using a LI-COR Odyssey infrared imaging system (LI-COR, USA). Western blot quantification and analysis was conducted using Image Studio™ Lite (LI-COR Biosciences).

In general, EC50 refers to the concentration giving half of the maximal effect. Broadly, the kinetic solubility is solubility judged after dilution from a stock solution rather than from solid.

Each structure is given as a SMILES string. ≈ marks a conversion by molar mass, not a printed value.

T2 sequence (P46940 2-1657 limits assumed): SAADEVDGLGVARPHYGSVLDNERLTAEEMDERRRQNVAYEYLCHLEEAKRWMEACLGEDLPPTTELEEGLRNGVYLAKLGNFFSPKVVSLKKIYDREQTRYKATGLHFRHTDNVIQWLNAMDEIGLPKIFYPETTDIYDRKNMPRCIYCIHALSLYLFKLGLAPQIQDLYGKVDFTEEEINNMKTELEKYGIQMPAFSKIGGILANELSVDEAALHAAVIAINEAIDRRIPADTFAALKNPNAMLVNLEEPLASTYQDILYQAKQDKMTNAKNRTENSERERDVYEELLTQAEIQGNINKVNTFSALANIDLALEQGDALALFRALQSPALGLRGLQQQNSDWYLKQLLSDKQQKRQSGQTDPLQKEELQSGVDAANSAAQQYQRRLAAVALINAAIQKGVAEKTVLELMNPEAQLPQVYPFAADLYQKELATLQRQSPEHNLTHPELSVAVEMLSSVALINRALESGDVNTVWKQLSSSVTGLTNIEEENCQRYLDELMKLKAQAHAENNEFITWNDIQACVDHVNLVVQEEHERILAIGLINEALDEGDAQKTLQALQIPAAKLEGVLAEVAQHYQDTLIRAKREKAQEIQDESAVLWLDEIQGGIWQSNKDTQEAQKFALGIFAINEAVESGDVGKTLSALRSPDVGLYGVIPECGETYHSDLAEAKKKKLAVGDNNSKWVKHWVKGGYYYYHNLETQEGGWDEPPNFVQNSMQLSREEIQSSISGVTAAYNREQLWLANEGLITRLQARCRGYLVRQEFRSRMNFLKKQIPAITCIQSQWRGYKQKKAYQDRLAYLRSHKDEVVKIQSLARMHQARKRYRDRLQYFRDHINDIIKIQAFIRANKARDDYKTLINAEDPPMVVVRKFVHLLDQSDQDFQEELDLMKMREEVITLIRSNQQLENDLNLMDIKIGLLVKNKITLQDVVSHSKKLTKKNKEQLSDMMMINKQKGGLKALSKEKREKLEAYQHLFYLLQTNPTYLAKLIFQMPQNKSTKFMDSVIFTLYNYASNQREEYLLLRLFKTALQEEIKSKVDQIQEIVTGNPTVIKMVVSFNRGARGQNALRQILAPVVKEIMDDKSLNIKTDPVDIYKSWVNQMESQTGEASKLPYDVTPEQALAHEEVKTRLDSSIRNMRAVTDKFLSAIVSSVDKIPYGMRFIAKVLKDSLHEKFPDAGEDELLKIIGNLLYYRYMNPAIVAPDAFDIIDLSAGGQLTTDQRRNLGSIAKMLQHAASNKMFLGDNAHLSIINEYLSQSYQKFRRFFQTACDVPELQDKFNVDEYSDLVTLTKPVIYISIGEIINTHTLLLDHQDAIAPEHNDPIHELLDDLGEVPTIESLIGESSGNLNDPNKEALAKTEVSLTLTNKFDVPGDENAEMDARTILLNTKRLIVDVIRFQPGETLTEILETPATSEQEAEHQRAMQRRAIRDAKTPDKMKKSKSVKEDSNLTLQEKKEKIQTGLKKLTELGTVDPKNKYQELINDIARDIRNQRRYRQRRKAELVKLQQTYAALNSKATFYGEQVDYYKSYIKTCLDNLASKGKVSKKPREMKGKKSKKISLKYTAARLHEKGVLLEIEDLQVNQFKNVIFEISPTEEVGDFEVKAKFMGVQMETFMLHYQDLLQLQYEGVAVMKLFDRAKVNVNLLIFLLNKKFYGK
T2 sequence (P60953 1-188 limits assumed): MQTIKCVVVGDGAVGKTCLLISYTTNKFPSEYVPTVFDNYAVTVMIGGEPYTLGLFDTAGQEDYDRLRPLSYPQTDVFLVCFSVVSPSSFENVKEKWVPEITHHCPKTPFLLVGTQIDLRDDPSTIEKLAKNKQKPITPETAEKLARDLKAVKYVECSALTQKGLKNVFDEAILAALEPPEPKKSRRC
T1 sequence (P08515 whole entry): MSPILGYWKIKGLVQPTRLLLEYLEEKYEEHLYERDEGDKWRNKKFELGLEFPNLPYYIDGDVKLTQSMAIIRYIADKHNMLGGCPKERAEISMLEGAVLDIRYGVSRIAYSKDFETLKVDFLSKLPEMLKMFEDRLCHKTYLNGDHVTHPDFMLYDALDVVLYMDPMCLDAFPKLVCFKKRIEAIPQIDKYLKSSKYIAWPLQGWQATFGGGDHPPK

For `CCN(CC)CCn1c2ccccc2c2nc3ccc([N+](=O)[O-])cc3cc21` [MLS000332963], the “activity in His-GST counter-screen” value on His-tagged GST is “inactive”. Moreover, the cytotoxicity efficacy in the data set with control MCF7 cells is 47%. The EC50 with control MCF7 cells (read-out: cytotoxicity EC50) came to 19.9 µM. For the same molecule, the T1/2 metabolic half-life in data set [1] was 11.47 min. Besides, in data set [2], the PAMPA passive permeability came to 675 ×10⁻⁶ cm/s. The “Solubility (kinetic aqueous)” value in data set [3] is given as under 1 µg/mL.
For the molecule `Cc1cccc(NC(=O)c2c(NC(=O)C(F)(F)F)sc3c2CCCCC3)c1` [NCGC00098561], the “activity in His-GST counter-screen” value at His-tagged GST was “not active”. The IC50 in the data set on control MCF7 cells (Homo sapiens, read-out: cytotoxicity EC50) amounted to 2.24 µM. In addition, the Emax with control MCF7 cells (Homo sapiens, read-out: cytotoxicity efficacy) was about 100%.
On to `CCN1CCN(c2ncc3c(n2)CCN(Cc2cc(Br)cs2)C3)CC1` [NCGC00131308], for which the “reduction of interaction between endogenous IQGAP1 and Cdc42 (mean)” value in data set [4] (16 µM (Fig. 3b)) is 60%. In addition, the half-life in data set [1] was determined as 2.7 min. The Papp in data set [2] turned out to be 77 ×10⁻⁶ cm/s. This molecule also had a kinetic solubility in data set [3] of 37.1 µg/mL (≈ 88 µM).
For the molecule `CCc1ccccc1Nc1ncnc2c1cnn2-c1ccc(Cl)cc1` [NCGC00138812], the “reduction of interaction between endogenous IQGAP1 and Cdc42 (mean)” value in data set [4] (0.2 µM (Fig. 3b)) came out at 47%. Besides, the half-life in data set [1] was 7.12 min. Further, the Papp in data set [2] stood at 177 ×10⁻⁶ cm/s. Besides, the solubility (kinetic) in data set [3] is under 1 µg/mL.
